{"source": "patent US20190369111A1", "about": "“MOLECULAR KINETICS EVALUATION METHOD AND SCREENING METHOD” (Tokyo University of Science Foundation, priority 2016, published 2019)", "target": "T1, wild-type K-Ras protein (Homo sapiens, UniProt P01116)", "T1 construct": "expressed in transfected cells; host or cells: HeLa cells, transient transfection", "T1 sequence (P01116 1-188 isoform P01116-2)": "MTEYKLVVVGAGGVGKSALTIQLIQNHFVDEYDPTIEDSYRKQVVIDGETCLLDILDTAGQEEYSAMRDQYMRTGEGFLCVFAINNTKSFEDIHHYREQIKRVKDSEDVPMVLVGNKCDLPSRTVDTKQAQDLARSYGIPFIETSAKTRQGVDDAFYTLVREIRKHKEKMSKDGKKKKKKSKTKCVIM", "experiment": "Degradation (knockdown) of forcibly expressed wild-type K-Ras protein in HeLa cells, Western blot analysis", "type": "cell-based", "procedure": "A plasmid expressing the wild-type K-Ras protein (K-Ras-WT) was prepared, as in Reference Example 1.\nAs in Reference Example 1, the plasmid was introduced into HeLa cells to transiently overexpress the wild-type K-Ras protein (specifically, a fusion protein of the wild-type K-Ras protein and GFP through a HA tag) or a DsRed protein for comparison in the cells. HeLa cells into which the plasmid had been introduced were seeded in a 24-well plate at a cell density of 4×10^4 cells/well, and then cultured under conditions of 37° C. and 5 vol % CO2 for 40 hours.\nCulture was performed for 40 hours after introduction of the plasmid, and then TUS-007 was added to HeLa cells as follows. As a medium, a serum-free medium (37° C.) in which 1 mass % L-glutamine solution (Sigma-Aldrich) was added to D-MEM (high D-glucose, phenol red, sodium pyruvate (Wako Pure Chemical Industries, Ltd.)) was used. […]\nAfter electrophoresis, proteins were transferred to a PVDF membrane (Immobion™-P, Millipore) under conditions of 100 V and 120 minutes using a tank-type blotting device and a transfer buffer (25 mM Tris-HCl, 195 mM glycine, 0.01% SDS, 15% methanol). […] Subsequently, the membrane was treated with a chemiluminescence reagent Immobilon™ Western (Millipore), and then chemiluminescence was detected using a lumino image analyzer LAS-3000 (FUJIFILM Corporation). […]", "data": [{"smiles": "CC[C@@H](C)[C@H](NC(=O)CCCCCCNC(=O)[C@H](CC(C)C)NC(=O)CNC(=O)c1cc(Cl)ccc1Cl)C(=O)Nc1ccc2[nH]c(Cc3c[nH]c4ccccc34)nc2c1", "note": "[TUS-007]", "values": [{"measurement": "amount of wild-type K-Ras protein", "setting": "24 hours after addition, relative to control (DMSO)", "value": "the amount of the wild-type K-Ras protein was reduced"}, {"measurement": "amount of wild-type K-Ras protein when MLN2238 is added together", "setting": "both TUS-007 and MLN2238 added", "value": "the amount of the wild-type K-Ras protein was increased as compared with the amount of the control (DMSO)"}]}]}
